Reference: PubChem BioAssay (NCI)
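Values below derive from 48-hour exposures of cells grown in 96-well plates, with endpoints linearly interpolated between the two concentrations bracketing the appropriate inhibition level. The concentration for full growth arrest is given as TGI.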

Legend:
Test in all cases: NCI tumour cell line growth inhibition, 48 h
[1] = test system: UACC-62 melanoma
[2] = test system: HCC-2998 colon
[3] = test system: NCI-H226 lung
[4] = test system: SNB-75 CNS
[5] = test system: NCI-H522 lung
[6] = test system: OVCAR-5 ovarian
[7] = test system: DMS 273 small cell lung
[8] = test system: EKVX NSCLC
[9] = test system: M19-MEL melanoma
[10] = test system: SF-539 CNS
[11] = test system: TK-10 renal
[12] = test system: OVCAR-3 ovarian
[13] = test system: A549 NSCLC
[14] = test system: OVCAR-8 ovarian
[15] = test system: SK-MEL-28 melanoma
[16] = test system: HOP-18 NSCLC
[17] = test system: IGROV1 ovarian
[18] = test system: UO-31 renal
[19] = test system: CAKI-1 renal
[20] = test system: XF 498 CNS
[21] = test system: SW-620 colon
[22] = test system: SF-295 CNS
[23] = test system: OVCAR-4 ovarian
[24] = test system: HCT-116 colon
[25] = test system: RPMI-8226 leukemia
[26] = test system: SNB-19 CNS
[27] = test system: COLO 205 colon
[28] = test system: NCI-H460 lung
[29] = test system: KM20L2 colon
[30] = test system: SN12C renal
[31] = test system: 786-0 renal
[32] = test system: SNB-78 CNS
[33] = test system: DLD-1 colon
[34] = test system: SK-MEL-2 melanoma
[35] = test system: NCI-H23 lung
[36] = test system: RXF-631 renal
[37] = test system: M14 melanoma
[38] = test system: SF-268 CNS
[39] = test system: RXF 393 renal
[40] = test system: DMS 114 small cell lung
[41] = test system: HCT-15 colon
[42] = test system: KM12 colon
[43] = test system: MALME-3M melanoma
[44] = test system: U251 CNS
[45] = test system: LXFL 529 NSCLC
[46] = test system: CCRF-CEM leukemia
[47] = test system: HOP-62 NSCLC
[48] = test system: SK-OV-3 ovarian
[49] = test system: K-562 leukemia
[50] = test system: A498 renal
[51] = test system: HL-60(TB) leukemia
[52] = test system: ACHN renal
[53] = test system: SR leukemia
[54] = test system: HT29 colon
[55] = test system: SK-MEL-5 melanoma
[56] = test system: MOLT-4 leukemia
[57] = test system: HOP-92 NSCLC
[58] = test system: UACC-257 melanoma
[59] = test system: LOX IMVI melanoma

O=C(O)c1ccc([Se][Se]c2ccc(C(=O)O)cc2)cc1
TGI [1]: 33.4 µM
TGI [2]: > 100 µM
TGI [3]: 76.5 µM
TGI [4]: 88.3 µM
TGI [5]: 52 µM
TGI [6]: 66.8 µM
TGI [7]: 49.7 µM
TGI [8]: 64.3 µM
TGI [9]: 40.5 µM
TGI [10]: 92.1 µM
TGI [11]: 54.1 µM
TGI [12]: 42.9 µM
TGI [13]: > 100 µM
TGI [14]: 70.8 µM
TGI [15]: 55.6 µM
TGI [16]: 82.3 µM
TGI [17]: 71.1 µM
TGI [18]: 77.7 µM
TGI [19]: 36.7 µM
TGI [20]: 81.1 µM
TGI [21]: > 100 µM
TGI [22]: 54.7 µM
TGI [23]: 49.1 µM
TGI [24]: 34.5 µM
TGI [25]: 91.7 µM
TGI [26]: > 100 µM
TGI [27]: 74 µM
TGI [28]: 54.9 µM
TGI [29]: > 100 µM
TGI [30]: > 100 µM
TGI [31]: > 100 µM
TGI [32]: 52.4 µM
TGI [33]: > 100 µM
TGI [34]: 63.2 µM
TGI [35]: 37.6 µM
TGI [36]: 52.6 µM
TGI [37]: 35.6 µM
TGI [38]: > 100 µM
TGI [39]: 52.9 µM
TGI [40]: 54 µM
TGI [41]: > 100 µM
TGI [42]: 68.4 µM
TGI [43]: 68.3 µM
TGI [44]: 49.6 µM
TGI [45]: 62.4 µM

c1cc(-c2cn3ccsc3n2)ccn1
TGI [1]: > 100 µM
TGI [46]: > 60.5 µM
TGI [2]: > 100 µM
TGI [3]: > 100 µM
TGI [4]: > 100 µM
TGI [5]: > 100 µM
TGI [6]: > 100 µM
TGI [47]: > 100 µM
TGI [7]: > 100 µM
TGI [48]: > 100 µM
TGI [8]: 98.7 µM
TGI [9]: > 100 µM
TGI [10]: > 100 µM
TGI [11]: > 100 µM
TGI [49]: > 70.3 µM
TGI [12]: > 100 µM
TGI [13]: > 100 µM
TGI [14]: > 63.8 µM
TGI [15]: > 100 µM
TGI [16]: > 100 µM
TGI [17]: > 100 µM
TGI [18]: > 100 µM
TGI [19]: > 100 µM
TGI [20]: > 100 µM
TGI [50]: > 100 µM
TGI [21]: > 62.3 µM
TGI [22]: > 100 µM
TGI [23]: > 100 µM
TGI [24]: > 100 µM
TGI [25]: > 81.4 µM
TGI [26]: > 100 µM
TGI [27]: > 100 µM
TGI [28]: > 100 µM
TGI [51]: > 60.1 µM
TGI [52]: > 100 µM
TGI [29]: > 31.6 µM
TGI [30]: > 100 µM
TGI [31]: > 100 µM
TGI [32]: > 100 µM
TGI [33]: > 100 µM
TGI [34]: > 100 µM
TGI [35]: > 100 µM
TGI [36]: > 100 µM
TGI [53]: > 100 µM
TGI [37]: > 100 µM
TGI [38]: > 100 µM
TGI [54]: > 100 µM
TGI [55]: > 100 µM
TGI [56]: > 100 µM
TGI [40]: > 100 µM
TGI [41]: > 62 µM
TGI [57]: > 100 µM
TGI [42]: > 100 µM
TGI [43]: > 100 µM
TGI [44]: > 100 µM
TGI [45]: > 100 µM
TGI [58]: > 100 µM
TGI [59]: > 100 µM
